From patent US4755610A, “Hapalindoles” (priority 1986, dated 1988)
In brackets after ≈: the same amount, converted by molar mass.

Key:
Format in all cases: cell-based
[1] = system: Staphylococcus aureus X1.1; assay: In vitro antibacterial activity, standard agar-dilution assay; settings: Staphylococcus aureus X1.1; agar dilution; read-out: MIC
[2] = system: Staphylococcus aureus V41; assay: as above; settings: Staphylococcus aureus V41; agar dilution; read-out: MIC
[3] = system: Staphylococcus aureus X400; assay: microbe, parasite or virus in culture
[4] = system: Staphylococcus aureus S13E; assay: microbe, parasite or virus in culture
[5] = system: Staphylococcus epidermidis EPI1; assay: In vitro antibacterial activity, standard agar-dilution assay; settings: Staphylococcus epidermidis EPI1; agar dilution; read-out: MIC
[6] = system: Staphylococcus epidermidis 222; assay: as above; settings: Staphylococcus epidermidis 222; agar dilution; read-out: MIC
[7] = system: Streptococcus pyogenes C203; assay: as above; settings: Streptococcus pyogenes C203; agar dilution; read-out: MIC
[8] = system: Streptococcus pneumoniae Park 1; assay: as above; settings: PARK1; Streptococcus pneumoniae Park 1; agar dilution; read-out: MIC
[9] = system: Streptococcus faecium ATCC 9790; assay: as above; settings: Enterococcus faecium, ATCC9790; Streptococcus faecium ATCC 9790; agar dilution; read-out: MIC
[10] = system: Streptococcus sp group D 2041; assay: as above; settings: GROUPD2041; Streptococcus sp group D 2041; agar dilution; read-out: MIC
[11] = system: Haemophilus influenzae C.L.; assay: as above; settings: Haemophilus influenzae C.L.; agar dilution; read-out: MIC
[12] = system: Haemophilus influenzae 76; assay: as above; settings: Haemophilus influenzae 76; agar dilution; read-out: MIC
Escherichia coli N10 = assay: as above; settings: Escherichia coli N10; agar dilution; read-out: MIC
Escherichia coli EC14 = assay: as above; settings: Escherichia coli EC14; agar dilution; read-out: MIC
Escherichia coli TEM = assay: as above
[13] = system: Klebsiella pneumoniae X26; assay: as above; settings: Klebsiella pneumoniae X26; agar dilution; read-out: MIC
[14] = system: Klebsiella pneumoniae X68; assay: as above; settings: Klebsiella pneumoniae X68; agar dilution; read-out: MIC
[15] = system: Klebsiella pneumoniae KAE; assay: as above; settings: Klebsiella pneumoniae KAE; agar dilution; read-out: MIC
Salmonella sp. X514 = assay: as above; settings: Salmonella sp. X514; agar dilution; read-out: MIC
Shigella sonnei N9 = assay: as above; settings: Shigella sonnei N9; agar dilution; read-out: MIC
Proteus morganii PR15 = assay: as above; settings: Morganella morganii; Proteus morganii PR15; agar dilution; read-out: MIC
[16] = system: Acinetobacter calcoaceticus AC12; assay: as above; settings: Acinetobacter calcoaceticus AC12; agar dilution; read-out: MIC
Candida albicans = assay: In vitro antifungal activity, standard disc-plate assay; settings: disc-plate assay, read-out: MIC
[17] = system: Trichophyton mentagrophytes; assay: as above; settings: disc-plate assay, read-out: MIC

SMILES | MIC [1] [µg/mL] | MIC [2] [µg/mL] | MIC [3] [µg/mL] | MIC [4] [µg/mL] | MIC [5] [µg/mL] | MIC [6] [µg/mL] | MIC [7] [µg/mL] | MIC [8] [µg/mL] | MIC [9] [µg/mL] | MIC [10] [µg/mL] | MIC [11] [µg/mL] | MIC [12] [µg/mL] | MIC (Escherichia coli N10) [µg/mL] | MIC (Escherichia coli EC14) [µg/mL] | MIC (Escherichia coli TEM) [µg/mL] | MIC [13] [µg/mL] | MIC [14] [µg/mL] | MIC [15] [µg/mL] | MIC (Salmonella sp. X514) [µg/mL] | MIC (Shigella sonnei N9) [µg/mL] | other results
[C-]#[N+][C@@H]1[C@H]2c3c[nH]c4cccc(c34)C(C)(C)[C@@H]2CC[C@]1(C)C=C [Compound 8, Hapalindole H] | > 64 | > 64 | > 64 | > 64 | 32 (≈ 105 µM) | 32 (≈ 105 µM) | 32 (≈ 105 µM) | 32 (≈ 105 µM) | > 64 | > 64 | > 64 | > 64 | > 64 | > 64 | > 64 | > 64 | > 64 | > 64 | > 64 | > 64 | MIC (Proteus morganii PR15): > 64 µg/mL; MIC [16]: 16 µg/mL (≈ 52.6 µM); MIC (Candida albicans): 10 µg/mL (≈ 32.8 µM); MIC [17]: 1.25 µg/mL (≈ 4.11 µM)
[C-]#[N+][C@@H]1[C@H]2c3c[nH]c4cccc(c34)C(C)(C)[C@H]2C[C@@H](Cl)[C@]1(C)C=C [Compound 1, hapalindole A] | 4 (≈ 11.8 µM) | 4 (≈ 11.8 µM) | 4 (≈ 11.8 µM) | 4 (≈ 11.8 µM) | 2 (≈ 5.9 µM) | 0.06 (≈ 0.177 µM) | 2 (≈ 5.9 µM) | 16 (≈ 47.2 µM) | 16 (≈ 47.2 µM) | 16 (≈ 47.2 µM) | 4 (≈ 11.8 µM) | 4 (≈ 11.8 µM) | 4 (≈ 11.8 µM) | 8 (≈ 23.6 µM) | 4 (≈ 11.8 µM) | 4 (≈ 11.8 µM) | > 64 | > 64 | 8 (≈ 23.6 µM) | 8 (≈ 23.6 µM) | MIC (Proteus morganii PR15): 32 µg/mL (≈ 94.4 µM); MIC [16]: 2 µg/mL (≈ 5.9 µM); MIC (Candida albicans): 1.25 µg/mL (≈ 3.69 µM); MIC [17]: 1.25 µg/mL (≈ 3.69 µM)
[C-]#[N+][C@@H]1[C@H](c2c[nH]c3ccccc23)[C@@H](C(=C)C)CC[C@]1(C)C=C [Compound 3, Hapalindole C] | 16 (≈ 52.6 µM) | 16 (≈ 52.6 µM) | 16 (≈ 52.6 µM) | 8 (≈ 26.3 µM) | 8 (≈ 26.3 µM) | 16 (≈ 52.6 µM) | > 64 | > 64 | > 64 | > 64 | 16 (≈ 52.6 µM) | 16 (≈ 52.6 µM) | > 64 | > 64 | 64 (≈ 210 µM) | > 64 | > 64 | > 64 | > 64 | > 64 | MIC (Proteus morganii PR15): > 64 µg/mL; MIC [16]: 2 µg/mL (≈ 6.57 µM); MIC (Candida albicans): 0.625 µg/mL (≈ 2.05 µM); MIC [17]: 0.625 µg/mL (≈ 2.05 µM)
C=C[C@@]1(C)[C@H](Cl)C[C@H]2[C@H](c3c[nH]c4cccc(c34)C2(C)C)[C@H]1N=C=S [Compound 2, Hapalindole B] | 2 (≈ 5.39 µM) | 2 (≈ 5.39 µM) | 2 (≈ 5.39 µM) | 2 (≈ 5.39 µM) | 2 (≈ 5.39 µM) | 2 (≈ 5.39 µM) | 64 (≈ 173 µM) | 64 (≈ 173 µM) | 4 (≈ 10.8 µM) | 8 (≈ 21.6 µM) | > 64 | > 64 | > 64 | > 64 | > 64 | > 64 | > 64 | > 64 | > 64 | > 64 | MIC (Proteus morganii PR15): > 64 µg/mL; MIC [16]: > 64 µg/mL; MIC (Candida albicans): > 20 µg/mL; MIC [17]: > 20 µg/mL
